Results reported in BindingDB's records for doi:10.1021/acs.jmedchem.8b00875 (2019).

How the values were obtained:
[1] = target: T1, Muscarinic acetylcholine receptor M1 (Homo sapiens, UniProt P11229); test: Positive allosteric modulation of M1 AchR (unknown origin)
T1 sequence (P11229 whole entry): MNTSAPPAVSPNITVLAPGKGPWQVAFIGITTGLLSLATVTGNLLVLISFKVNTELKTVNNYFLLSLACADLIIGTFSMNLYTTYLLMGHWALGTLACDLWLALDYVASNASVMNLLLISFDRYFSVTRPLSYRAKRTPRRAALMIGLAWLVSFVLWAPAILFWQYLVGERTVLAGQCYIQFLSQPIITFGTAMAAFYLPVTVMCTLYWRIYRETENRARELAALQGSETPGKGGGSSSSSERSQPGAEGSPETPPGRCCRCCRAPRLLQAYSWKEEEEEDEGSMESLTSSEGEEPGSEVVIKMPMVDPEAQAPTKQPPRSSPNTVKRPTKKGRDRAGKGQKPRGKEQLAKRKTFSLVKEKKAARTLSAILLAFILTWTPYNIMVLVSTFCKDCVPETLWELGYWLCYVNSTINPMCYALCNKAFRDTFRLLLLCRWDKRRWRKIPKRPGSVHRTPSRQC

[2] = target: T2, 5-hydroxytryptamine receptor 2C (Homo sapiens, UniProt P28335); test: Positive allosteric modulation of 5-HT2C receptor (unknown origin) assessed as increase in 5-HT-induced displacement of [3H]mesulergine by measuring 5-HT Ki at 20 uM (Rvb = 159 nM)
T2 sequence (P28335 whole entry): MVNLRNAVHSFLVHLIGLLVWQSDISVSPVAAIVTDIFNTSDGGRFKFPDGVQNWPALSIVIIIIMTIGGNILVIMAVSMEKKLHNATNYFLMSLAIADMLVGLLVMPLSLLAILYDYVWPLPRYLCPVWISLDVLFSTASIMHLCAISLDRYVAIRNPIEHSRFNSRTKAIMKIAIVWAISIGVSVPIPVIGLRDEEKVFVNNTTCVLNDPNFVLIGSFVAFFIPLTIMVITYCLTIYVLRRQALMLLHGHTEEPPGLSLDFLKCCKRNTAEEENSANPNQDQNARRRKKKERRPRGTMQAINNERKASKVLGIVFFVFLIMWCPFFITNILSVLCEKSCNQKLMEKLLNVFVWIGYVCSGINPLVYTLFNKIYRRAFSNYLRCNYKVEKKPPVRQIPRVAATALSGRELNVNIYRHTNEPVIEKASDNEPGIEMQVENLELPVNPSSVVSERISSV

Row | Ki [2] [nM] | Structure (SMILES) | EC50 [1] [nM]
1 | – | Cn1cc(-c2ccc(Cn3cc(C(=O)N[C@H]4CCCC[C@@H]4O)c4c(F)cc(F)cc43)cn2)cn1 | 210
2 | 6.4 | CCCCCCCCCCC[C@@H]1CCN[C@H](C(=O)N[C@@H]([C@H]2O[C@H](SC)[C@H](O)[C@@H](O)[C@H]2O)[C@H](C)Cl)C1 | –
